Measured values reported in patent US8968807B1, “Use of ethylene diamine metal complexes to deliver highly absorbable metals for animal nutrition” (Zinpro Corporation, priority 2013, dated 2015).

What was measured:
[1] = sheep, bolus; versus FeSO4; most notably at 30 hours; FIG. 3
Protocol: In the following examples sheep were given a bolus injection like in Example 19 and then blood uptake was measured at various intervals.
The Fe-EDA (Example 9) and the Fe-EDA (Example 16) were tested for iron uptake in the blood in comparison with the bolus injection of FeSO4.

Cobb male broilers = assay: Poultry trial with Cobb male broilers; type: in vivo; settings: Cobb male broilers from 1 day old; 80 ppm supplemental Zn; Zn-EDA group = 40 ppm Zn from ZnSO4 + 40 ppm Zn from Zn-EDA
Excerpt: Animals were Cobb male broilers. The experiment was started with 1 day old animals. ZnSO4 was used as a comparative example using 80 ppm zinc from ZnSO4. Zn-EDA replaced 40 ppm of the zinc so there was 40 ppm Zn from ZnSO4 and 40 ppm Zn from Zn-EDA and compared to 80 ppm Zn from ZnSO4. Actual broiler integrator diets were used. They contain 500 ftu of phytase and an NSP enzyme (nonstarch polysaccride degrading enzyme). The plane of nutrition is targeted to be at AgriStat's 75th percentile. […] There were 12 replicates per treatment and 21 birds per replicate.

[2] = Sheep bolus test, manganese blood uptake; type: in vivo; settings: 30 hour
Excerpt: Tests like in Example 19 and 21 were run with MnSO4 in comparison with Mn-EDA of Example 10. At all points Manganese blood uptake of the sheep was at lower levels than other tested ligands. This may be a characteristic of Mn itself.

Molecule | iron uptake in the blood [1] | Manganese blood uptake [2] | other results
NCCN.[Cl][Fe][Cl] [Example 16, 1,2 Diaminoethane—iron(II) chloride] | better at every interval than inorganic iron sulfate | – | –
O=S(=O)([O-])[O-].[Zn+2] [ZnSulfate, ZnSO4] | – | – | Body Wt. (Cobb male broilers): 2.212 kg; Feed Conversion (Cobb male broilers): 1.531; Mortality (Cobb male broilers): 4.71%
Cl.Cl.NCCN.[Cl][Fe][Cl] [Example 9, 1,2 Diaminoethane dihydrochloride—iron(II) chloride] | better at every interval than inorganic iron sulfate | – | –
O=S(=O)([O-])[O-].[Mn+2] [MnSO4] | – | 24 | –
1,2 Diaminoethane dihydrochloride—manganese(II) chloride [Example 10] | – | 33 | –
